Patent publication US20240398813A1, “PHARMACEUTICAL COMPOSITION FOR PREVENTING OR TREATING OVERACTIVE BLADDER” (GWANGJU INSTITUTE OF SCIENCE AND TECHNOLOGY, priority 2021, published 2024)

Legend:
[1] = test system: Spontaneously hypertensive rats (SHR); experiment: In vivo model of OAB: urination in spontaneously hypertensive rats after oral administration; parameters: species or system rat
Procedure: Male rats with body weights of 300 to 350 g were deprived of food and water overnight before the experiment, and then were randomly divided into a drug administration group and a control group. All animals were provided free access to water for 2 hours, and then 10 mL/kg of vehicle solution [DMSO:PEG400:distilled water=5:40:55 (v/v)] as a test substance were orally administered. After oral administration of the test substance, the rats were placed in a metabolic cage and the number of urinations and urine volume were measured for 3 hours.
The in vivo treatment effects of the compounds for […] were investigated in spontaneously hypertensive rats (SHR) with OAB symptoms after oral administration. Wistar-Kyoto rats (WKY) were used as the healthy animal control, and urination frequency was increased more than 2.8 times in SHR compared to WKY. Compound 208 reduced the urination frequency in SHR (50 mg/kg) by 33%, which is quite close to the urination frequency of the normal group (see FIG. 18).

[2] = target: T1, hyperactive mutant BKCa channels (hSlo G803D/N806K) stably expressed in AD 293 cells (Homo sapiens, UniProt Q12791, G856D/N859K); experiment: Cell-based fluorescence assay (FluxOR Potassium Ion Channel Assay) of BKCa channel activation
T1 construct: expressed in transfected cells
T1 sequence (Q12791 whole entry G856D/N859K): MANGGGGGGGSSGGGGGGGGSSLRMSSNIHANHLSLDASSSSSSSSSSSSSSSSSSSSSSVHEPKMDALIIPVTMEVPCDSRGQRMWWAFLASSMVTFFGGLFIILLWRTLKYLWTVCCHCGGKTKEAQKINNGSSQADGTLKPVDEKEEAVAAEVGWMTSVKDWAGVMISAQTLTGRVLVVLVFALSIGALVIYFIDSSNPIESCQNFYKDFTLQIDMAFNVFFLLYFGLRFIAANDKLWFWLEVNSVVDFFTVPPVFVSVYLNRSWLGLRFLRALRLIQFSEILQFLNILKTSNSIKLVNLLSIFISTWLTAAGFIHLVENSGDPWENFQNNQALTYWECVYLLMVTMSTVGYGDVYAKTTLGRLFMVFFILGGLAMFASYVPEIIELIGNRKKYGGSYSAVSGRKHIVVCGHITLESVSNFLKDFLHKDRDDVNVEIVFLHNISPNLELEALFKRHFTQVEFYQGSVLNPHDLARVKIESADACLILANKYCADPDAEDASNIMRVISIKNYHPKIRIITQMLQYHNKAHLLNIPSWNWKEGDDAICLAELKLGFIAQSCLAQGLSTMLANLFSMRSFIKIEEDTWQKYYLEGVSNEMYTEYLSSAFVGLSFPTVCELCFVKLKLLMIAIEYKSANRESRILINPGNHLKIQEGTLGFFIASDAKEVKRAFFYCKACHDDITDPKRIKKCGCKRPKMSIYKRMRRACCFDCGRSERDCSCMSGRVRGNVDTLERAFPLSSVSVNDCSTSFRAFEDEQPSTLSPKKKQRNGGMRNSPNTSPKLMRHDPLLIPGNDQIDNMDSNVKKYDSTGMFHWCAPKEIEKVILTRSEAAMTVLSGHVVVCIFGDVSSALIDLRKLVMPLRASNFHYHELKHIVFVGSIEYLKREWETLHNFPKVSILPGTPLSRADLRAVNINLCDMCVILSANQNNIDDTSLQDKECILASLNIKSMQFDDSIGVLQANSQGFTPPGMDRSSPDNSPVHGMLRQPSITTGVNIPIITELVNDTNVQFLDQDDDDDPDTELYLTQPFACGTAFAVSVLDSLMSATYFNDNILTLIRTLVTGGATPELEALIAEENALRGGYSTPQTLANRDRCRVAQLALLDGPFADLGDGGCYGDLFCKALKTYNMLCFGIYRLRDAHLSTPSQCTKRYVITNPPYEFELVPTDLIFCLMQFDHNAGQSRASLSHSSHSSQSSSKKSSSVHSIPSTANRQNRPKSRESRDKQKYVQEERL
Procedure: AD 293 cells, which are derivatives of the commonly used HEK 293 cell line and stably express hyperactive mutant BKCa channels (hSlo G803D/N806K) to sensitively detect the effect (Lee et al., 2013), were cultured in Dulbecco' modified Eagle medium (Hyclone, Logan, Utah, […]) supplemented with 10% fetal bovine serum, and selected with 1 mg/mL Geneticin (Gibco, Amarillo, TX, USA). 20,000 cells per well were seeded on a 96-well clear-bottom black plate (Corning, New York, NY, USA) coated with poly-D-lysine (Gibco). BKCa channel activity was measured using the cell-based fluorescence assay, FluxOR Potassium Ion Channel Assay (Thermo Fisher Scientific, Waltham, MA, USA). Experimental procedures were performed according to the manufacturer's instructions. The cells were treated with test compounds dissolved in assay buffer for 15 minutes. Fluorescence was measured using a FlexStation3 multimode microplate reader (Molecular Devices, Silicon Valley, CA, USA) and SoftMax Pro (Molecular Devices). Excitation and emission wavelengths were set to 485 nm and 528 nm, respectively. Fluorescence signals were acquired every 2 seconds for 120 seconds and normalized by the relative fluorescence unit (RFU). The efficacy of a channel activator was determined by analyzing changes (ΔRFU) in the RFU for 80 seconds after channel stimulation.
Activation effects of the synthesized compounds on BKCa channels were evaluated using cell-based fluorescence assay. NS11021 was used as the positive control. The effects were determined based on the initial rate (vi) of channel activation and the apparent EC50 value obtained from fitting data of the dose-response curve. Here, Vi means change values for 4 seconds at the start of channel opening (vi={RFU(t=24 s)−RFU(t=20 s)}/4 s). […]

[3] = target: T1, hyperactive mutant BKCa channels (hSlo G803D/N806K) stably expressed in AD 293 cells; experiment: as above; conditions: compounds at 5 μM; n=3; vehicle 0.26

O=C(O[C@H]1CN2CCC1CC2)N1CCc2ccccc2[C@@H]1c1ccccc1 [solifenacin succinate, reference compound]
number of urinations ([1]; 5 mg/kg oral, 3 hours, SHR vehicle 8.2): 4.2

O=C(O)c1ccc(Cl)c2c1[nH]c1c3ccc(C(F)(F)F)cc3oc12 [LDD175, reference compound]
activation effect on the BKCa channels at a single concentration ([2]; 3 μM): significant activation effects | Activity (ΔRFU normalized by activities of LDD175) [3]: 1.00

O=C(Nc1cccc(C(F)(F)F)c1)c1sc(=S)n2c1[nH]c(=O)c1cc(Br)ccc12 [Compound 208, 7-bromo-5-oxo-1-thioxo-N-(3-(trifluoromethyl)phenyl)-4,5-dihydro-1H-thiazolo[3,4-a]quinazoline-3-carboxamide]
EC50 ([2]; fit of dose-response curve of initial rates, read-out: Apparent EC50 based on vi): 2.89 µM | reduction of urination frequency ([1]; 50 mg/kg oral): 33%
